Measured values reported in paper PMC4111244 (Bioorganic & medicinal chemistry letters, 2013).
Read-outs that look alike come from different tables or passages of the source. Blank lines part the entries; values can stand above or below the molecule they belong to.

What was measured:
T. cruzi amastigotes [1] = assay: Activity against T. cruzi amastigotes in culture; assay type: cell-based, Trypanosoma cruzi; conditions: for fold increase in potency compared with compound 12: T. cruzi cultures; for EC50: Trypanosoma cruzi, read-out: T. cruzi EC50(nM), T. cruzi amastigotes in culture; for fold drop in potency on replacement of the aniline moiety: versus amino compound (compound 2)
T. cruzi = conditions: ref previous studies; cited from earlier work
[2] = molecular target: T. cruzi sterol 14α-demethylase (CYP51) (Trypanosoma cruzi, UniProt Q7Z1V1); assay: Spectral response; conditions: P450 2.2 μM; titration range 0.4-7.6 μM
T. cruzi amastigotes [3] = conditions: read-out: EC50 against T.cruzi in culture; cited from earlier work

Sequence of T. cruzi sterol 14α-demethylase (CYP51) (Q7Z1V1 whole entry): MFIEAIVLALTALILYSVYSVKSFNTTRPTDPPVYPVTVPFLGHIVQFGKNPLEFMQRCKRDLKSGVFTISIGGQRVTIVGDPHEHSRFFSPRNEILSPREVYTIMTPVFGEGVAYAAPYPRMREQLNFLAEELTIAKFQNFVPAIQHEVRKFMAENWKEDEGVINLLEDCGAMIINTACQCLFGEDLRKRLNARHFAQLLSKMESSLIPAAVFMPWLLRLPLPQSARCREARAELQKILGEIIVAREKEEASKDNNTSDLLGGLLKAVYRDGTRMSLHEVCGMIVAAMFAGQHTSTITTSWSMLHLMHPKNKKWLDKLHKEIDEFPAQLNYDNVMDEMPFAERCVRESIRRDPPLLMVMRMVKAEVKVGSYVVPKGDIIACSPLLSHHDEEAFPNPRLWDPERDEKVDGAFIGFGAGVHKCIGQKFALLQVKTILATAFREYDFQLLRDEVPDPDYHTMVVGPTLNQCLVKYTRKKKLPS

SMILES: Nc1cc(-c2ccccc2)ccc1Cn1cncc1CNc1ccc(-c2nc3ccccc3s2)c(-c2ccccc2)c1 [Compound 2]
- fold increase in potency compared with compound 12 (T. cruzi amastigotes [1]; versus compound 12): 20 fold
- efficacy in the acute model of the disease (T. cruzi): highly efficacious

SMILES: Nc1ccc(-c2cc(NCc3cncn3Cc3ccc(-c4ccccc4)cc3)ccc2-c2nc3ccccc3s2)cc1 [Compound 12k]
- fold increase in potency compared with compound 12 (T. cruzi amastigotes [1]; versus compound 12): > 10 fold

- EC50 (T. cruzi amastigotes [1]): < 20 nM
SMILES: Fc1cc(-c2ccccc2)ccc1Cn1cncc1CNc1ccc(F)c(-c2ccccc2)c1 [Compound 24a]

SMILES: Fc1ccc(NCc2cncn2Cc2ccc(-c3ccccc3)cc2F)cc1 [Compound 24b]
- fold drop in potency compared with compound 12 (T. cruzi amastigotes [1]; against T. cruzi, versus compound 12): less than 4 fold

SMILES: COc1cc(-c2ccccc2)ccc1Cn1cncc1CNc1ccc(Cl)c(-c2ccccc2)c1 [Compound 24n]
- fold drop in potency on replacement of the aniline moiety (T. cruzi amastigotes [1]): > 27 fold

SMILES: Oc1cc(-c2ccccc2)ccc1Cn1cncc1CNc1ccc(Cl)c(-c2ccccc2)c1 [Compound 24o]
- fold drop in potency on replacement of the aniline moiety (T. cruzi amastigotes [1]): > 27 fold

SMILES: O=C(O)c1cc(-c2ccccc2)ccc1Cn1cncc1CNc1ccc(-c2nc3ccccc3s2)c(-c2ccccc2)c1 [Compound 24q]
- fold drop in potency on replacement of the aniline moiety (T. cruzi amastigotes [1]): > 27 fold

- binding to the haem moiety in the CYP51 active site (spectral type) [2]: Soret Type II binding spectra
SMILES: COc1ccc(NCc2cncn2Cc2ccc(-c3ccccc3)cc2N)nc1-c1ccccc1 [Compound 26c]

- EC50 (T. cruzi amastigotes [1]): < 10 nM
SMILES: Nc1cc(-c2ccccc2)ccc1Cn1cncc1CNc1ccc(Cl)c(Cl)c1 [Compound 36f]

- EC50 (T. cruzi amastigotes [1]): < 10 nM
SMILES: Nc1cc(-c2ccccc2)ccc1Cn1cncc1CNc1ccc(Cl)c(-n2ccnc2)c1 [Compound 36h]

SMILES: Cc1cc(NCc2cncn2Cc2ccc(-c3ccccc3)cc2N)ccc1Cl [Compound 36j]
- activity against T.cruzi amastigotes (in words) (T. cruzi amastigotes [1]): excellent activity

SMILES: Nc1cc(-c2ccccc2)ccc1Cn1cncc1CNc1ccc(Cl)cc1 [Compound 36k]
- activity against T.cruzi amastigotes (in words) (T. cruzi amastigotes [1]): excellent activity

SMILES: Nc1cc(-c2ccccc2)ccc1Cn1cncc1CNc1ccc(F)cc1 [Compound 36p]
- activity against T.cruzi amastigotes (in words) (T. cruzi amastigotes [1]): excellent activity

SMILES: CC[C@@H]([C@H](C)O)n1ncn(-c2ccc(N3CCN(c4ccc(OC[C@@H]5CO[C@@](Cn6cncn6)(c6ccc(F)cc6F)C5)cc4)CC3)cc2)c1=O [posaconazole]
- EC50 (T. cruzi amastigotes [3]): < 1 nM
